Legend:
Type in all cases: cell-based, human
[1] = system: HeLa cells; experiment: Soft agar colony formation assay (anchorage-independent growth); conditions: sub-micromolar concentrations, seven days
Description: FIG. 8 is a histogram showing that Compound 1 (a131) potently suppresses anchorage-independent growth of cancer cells. HeLa cells were suspended in 2 mL of soft agar at the final concentration of 0.4%, and were then placed on the top of 2 mL layer of 1% agar in 6-well plates, in triplicate. Subsequently, Compound 1 (a131) was added to the plates at concentrations of 0, 0.15, 0.3, 0.6, 1.25. 2.5 and 5 μM. Seven (7) days after the addition of Compound 1 (a131) to soft agar cultures, the number of colonies per plate were counted in an unbiased manner using automated MATLAB software. The average number of colonies from triplicates was plotted with standard deviations.
Soft agar colony formation assays are known to better mimic the features of in vivo tumours growing in three dimensions than cancer cell lines growing in an in vitro tissue culture. Therefore, the anti-proliferative effects of Compound 1 on cancer cells growing anchorage-independently in soft agar were studied too.
HeLa cells as cultured in Biology Example 1 (1×10^4 cells/well) were suspended in 2 mL of soft agar at a final concentration of 0.4%. […] Seven days after the addition of Compound 1, the number of colonies per plate was counted in an unbiased manner using MATLAB software.

[2] = system: non-transformed BJ cells depleted of p53 by shRNA-mediated knockdown; experiment: BrdU incorporation and FACS analysis (cell cycle arrest), p53 knockdown; conditions: 2.5 and 5 μM, 24 h
Description: (§1) A: is output from a FACS analysis of isogenic-non-transformed, without (panels a-c) (WT) or with (panels d-f) shRNA-mediated knockdown of p53 (p53KD), and oncogene-transformed BJ cells (panels g-i), each treated with 0, 5 or 2.5 μM Compound 1 (a131) for 24 h. Cells were doubly stained with PI (horizontal axis) and BrdU (vertical axis). The BrdU-positive population in panels a-c are indicated as arrows. B: is a diagrammatic representation of an immunoblot analysis showing isogenic non-transformed (normal) and oncogene-transformed BJ cells (transformed) treated with Compound 1 (a131) at 0, 2.5 or 5 μM for 24 h or 48 h. Cells were harvested and total lysates were analysed by detecting p53 and p21. Antibodies raised against β-actin were used as an internal loading control. C and D are histograms showing the percentage of bromodeoxyuracil (BrdU)-positive non-transformed (normal) BJ cells. C: Cells were treated with Group 1 Compound 1 (a131) at 2.5 and 5 μM, Compound 23 (b36) at 2.5 and 5 μM, and Compound 21 (b35) at 5 μM, and Group 2 Compound 25 (a166) at 2.5 and 5 μM, for 24 h. Cells were doubly stained with propidium iodide (PI) and BrdU, and subjected to FACS analysis. The BrdU-positive population are plotted as bars. […]

[3] = system: non-transformed normal BJ cells; experiment: Reversibility of cell cycle arrest after wash-out (cell counting); conditions: 5 μM for 2, 3, 6 or 11 days, then wash-out
From the text: Non-transformed normal BJ cells were synchronized in G1 phase of the cell cycle by culturing in serum-starved conditions (0.1% FBS) for 2 days. Subsequently, cells were synchronously released in fresh media with 10% FBS and further treated with Compound 1 (a131) for 2, 3, 6 or 11 days. After treatment for the required amount of time, Compound 1 (a131) was removed by washing cells twice with fresh media, and culturing of the washed cells was continued in fresh media for up to 11 days. Cells were harvested and total numbers of cells, counted using automated Sceptor cell counter, were plotted with standard deviation (triplicates).
As shown in Biology Examples 5 and 7, Compound 1 and its derivatives, which inhibit both lysosome function and mitosis, induce cell death only in transformed BJ cells, while inducing cell cycle arrest in isogenic non-transformed BJ cells. However, it was not fully clear if the cell cycle arrest was permanent or reversible. Therefore, to evaluate whether the effect was permanent or reversible, non-transformed normal BJ cells were synchronized in the G1 phase of the cell cycle by culturing them in DMEM media with 0.1% FBS for 2 days. […] At various time-points, the adherent cells were harvested with trypsin (Invitrogen) and the total number of cells was counted using automated Sceptor cell counter (Millipore).

[4] = system: p53 and p21 in non-transformed BJ cells; experiment: Immunoblot analysis of p53 and p21; conditions: 2.5 and 5 μM, 24 h or 48 h
Description: as §1

[5] = system: p53 and p21 in oncogene-transformed BJ cells; experiment: Immunoblot analysis of p53 and p21; conditions: 2.5 and 5 μM, 24 h or 48 h
Description: as §1

## N#C/C(=C\c1cccc2cnccc12)c1c[nH]c2ccccc12 [Compound 1, (Z)-2-(1H-indol-3-yl)-3-(isoquinolin-5-yl)acrylonitrile]
[1]
  reduction of HeLa cell colonies grown in soft agar: greater than 50%
[2]
  cell cycle arrest in p53-depleted cells: ability of Compound 1 to induce cell cycle arrest was compromised
[3]
  recovery of proliferation after removal of compound: removal of Compound 1 from the media is sufficient to enable these cells to recover from cell cycle arrest
[4]
  protein levels of p53 and p21: increased protein levels of p53
[5]
  protein expression levels of p53 and p21: did not alter the protein expression levels of p53 and p21

From patent US10308631B2, “Selective anti-cancer compounds” (NATIONAL UNIVERSITY OF SINGAPORE, priority 2015, dated 2019)
